Laboratory results from PubChem BioAssay (NCI).
Several values for one entry are separate records, joined by “and”; a condition that tells them apart may be missing. Equal entries are not always repeated.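 Five concentrations, 48 hours, 96-well plates. The concentration for 50% growth inhibition is given as GI50. Definition used: TGI = concentration required for complete inhibition of growth.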

Assays:
Assay in all cases: NCI anticancer screen, dose series, 48 h
SK-MEL-28 melanoma = tested on: SK-MEL-28 melanoma
SR leukemia = tested on: SR leukemia
COLO 205 colon = tested on: COLO 205 colon
CAKI-1 renal = tested on: CAKI-1 renal
HOP-92 NSCLC = tested on: HOP-92 NSCLC
T-47D breast = tested on: T-47D breast
SNB-75 CNS = tested on: SNB-75 CNS
BT-549 breast = tested on: BT-549 breast
UACC-257 melanoma = tested on: UACC-257 melanoma
NCI-H522 lung = tested on: NCI-H522 lung

Compound	TGI (SK-MEL-28 melanoma)	TGI (SR leukemia)	TGI (COLO 205 colon)	TGI (CAKI-1 renal)	TGI (HOP-92 NSCLC)	TGI (T-47D breast)	TGI (SNB-75 CNS)	TGI (BT-549 breast)	TGI (UACC-257 melanoma)	TGI (NCI-H522 lung)	GI50 (HOP-92 NSCLC)	GI50 (SNB-75 CNS)	GI50 (BT-549 breast)	GI50 (UACC-257 melanoma)
COc1cccc(C2c3cc4c(cc3OC(NNS(=O)(=O)c3ccc(C)cc3)C2C)OCO4)c1OC (centres undefined)	> 100 µM	3.29 µM	3.79 µM	8.56 µM	7.18 µM	> 100 µM	60.5 µM	36 µM	> 100 µM	8.61 µM				
CCOC(=O)/C=C(/C(=O)OCC)n1ccc(=O)n(Cc2cnnn2COCCOC(C)=O)c1=O	32.2 µM	45.7 µM	9.73 µM	11.4 µM	6.81 µM	29.2 µM	> 100 µM	38.2 µM	31.3 µM	4.65 µM				
CC(C)=CCC[C@@H](C)C1=C(O)C(Nc2ccccc2Cl)=C(C)C(=O)C1=O	> 75 µM	72.1 µM	21.7 µM	> 55 µM	> 67.8 µM	62.7 µM	> 52.3 µM	> 75 µM	> 75 µM	22.7 µM				
CCOC(=O)c1nc2ccc(C(F)(F)F)cc2nc1NCc1ccc(OC)c(OC)c1		> 100 µM	> 100 µM	> 100 µM	> 100 µM	> 100 µM	> 100 µM	> 100 µM	> 100 µM	> 100 µM				
COc1ccc(COC(=O)NCC(=O)NC(C)C(=O)NC(Cc2ccccc2)C(=O)OCc2ccccc2)cc1 (centres undefined)	39.5 µM and 34.8 µM	> 100 µM and 51.7 µM	80.8 µM and 52.9 µM	41.5 µM and 65.7 µM	37.8 µM and > 100 µM	48.6 µM and 86.2 µM	60.9 µM and 89.2 µM	48.1 µM and > 100 µM	29.8 µM and > 100 µM	29.3 µM and 31.1 µM	18.2 µM and 40.9 µM	21.1 µM and 44.6 µM	22.1 µM and > 100 µM	15.7 µM and > 100 µM
CCC(C)[C@@H](Nc1c(O)c2c(c(O)c1Cl)C(=O)C=CC2=O)C(=O)OC (some centres undefined)		4.49 µM	4.02 µM	> 10 µM	> 10 µM	> 10 µM	> 10 µM	> 10 µM	6.59 µM	4.92 µM				
CC(C)=CCCC(C)CCOS(=O)C(F)(F)F (centres undefined)	34.6 µM	10.3 µM	20.2 µM	> 100 µM	> 100 µM	> 100 µM	67.7 µM	77.8 µM	52.9 µM	5.12 µM				
O=C1CCc2ccc(O)c(c2)Oc2ccc(cc2)C(Sc2ccccc2)CCO1 (centres undefined)	31.6 µM	76 µM	33.1 µM	41.1 µM	22.2 µM	54.1 µM	28.4 µM	28.7 µM	32.6 µM	27.7 µM				
COc1ccc(N=NC(=O)NC(CC(C)C)C(=O)NCC(=O)O)cc1 (centres undefined)	> 100 µM	> 100 µM	24.5 µM	> 100 µM	> 100 µM	> 84 µM	> 100 µM	> 100 µM	> 100 µM	> 100 µM				
CC(=O)c1ccc2c(c1)CC1(C2)Cc2cc3c(c(C(=O)O)c2C1)CCC3 (centres undefined)	> 100 µM	> 100 µM	> 100 µM	> 100 µM	> 100 µM	> 100 µM	> 100 µM	> 100 µM	> 100 µM	> 100 µM				
CCN(CC)CCN(C)c1ccc(CO)c2c1C(=O)c1ccccc1S2=O (centres undefined)	10.2 µM	5.53 µM	21.6 µM	26.2 µM	30.5 µM	28.2 µM	31.5 µM	26.7 µM	3.55 µM	4.23 µM				
CC1=C(O)c2ccccc2C(=O)C1=O	> 100 µM	> 100 µM	> 100 µM	> 100 µM	> 100 µM	> 100 µM	> 100 µM	99.3 µM	> 100 µM	> 100 µM				
O=C1O[C@H]2[C@H](OC(=O)c3cc(O)c(O)c(O)c3)[C@@H](OC(=O)c3cc(O)c(O)c4c3[C@@H]3C1=CC(=O)C(O)(O)C3(O)O4)[C@H](OC(=O)c1cc(O)c(O)c(O)c1)O[C@@H]2COC(=O)c1cc(O)c(O)c(O)c1 (some centres undefined)	> 100 µM	> 100 µM	> 100 µM	> 100 µM	> 100 µM	> 100 µM	> 100 µM	> 100 µM	> 100 µM	> 100 µM				
Nc1nc(NCCCO)cc(=O)[nH]1	> 100 µM	> 100 µM	> 100 µM	> 100 µM	> 100 µM	> 100 µM	> 100 µM	> 100 µM	> 100 µM	> 100 µM				
COC(=O)/C=C1/OC(c2ccccc2)=C(C)C1=O	31.1 µM	7.09 µM	31.3 µM	14.8 µM	26.2 µM	42.7 µM	43 µM	8.45 µM		57.5 µM				
COc1ccccc1C(O)[C@@H]1C[C@@H]2[C@H]3CC[C@@](C)([C@@H]2O1)C3(C)C (some centres undefined)	37.3 µM	48.3 µM	35.2 µM	56.4 µM	30.7 µM	41.3 µM	37.7 µM	42.2 µM	39 µM	38.5 µM				
CCOC(=O)c1nc2cc(C(F)(F)F)ccc2nc1Nc1ccc(C(=O)OC)s1	> 100 µM	39.6 µM	44.5 µM	> 100 µM	54 µM	> 100 µM	> 100 µM	74.6 µM	> 100 µM	90.3 µM				
Cc1cc2nc3ccccc3n2c2nc(N)ccc12		> 100 µM	> 100 µM	> 100 µM	69 µM	> 100 µM	> 100 µM	> 100 µM	> 100 µM	> 100 µM				
CCCCCc1c(CCCC)c(=O)[nH]c2nc(NC(=O)CCCC)ccc12	> 100 µM	> 100 µM	> 100 µM	> 100 µM	> 100 µM	> 100 µM	> 100 µM	> 100 µM	> 100 µM	> 100 µM				
O=[S@]1c2ccc3ccccc3c2N[C@@H]2[C@H]1[C@H]1C=C[C@@H]2C1	> 100 µM	> 100 µM	> 100 µM	> 100 µM	> 100 µM	> 100 µM	73.4 µM	> 100 µM	> 100 µM	55.4 µM				
O=C1Nc2nccnc2C(=O)N2CCC[C@@H]12	> 100 µM	> 100 µM	> 100 µM	> 100 µM	> 100 µM	> 100 µM	> 100 µM	> 100 µM	> 100 µM	> 100 µM				
CC(C)C(OC(=O)c1ccc(NCC2=CC(=O)C=CC2=O)cc1)C(C)C	15 µM	11.9 µM	9.84 µM	3.02 µM	4.67 µM	7.45 µM	17.2 µM	15.1 µM	25.9 µM	2.85 µM				
O=C(/C=C/c1ccccc1)Nc1ccccc1SCCCCl	> 100 µM	64.7 µM	48.5 µM	> 100 µM	> 30.9 µM	> 85.8 µM	> 87.1 µM	> 36 µM	> 100 µM	24.3 µM				
C=C1C(=O)O[C@H]2C1C[C@@H](OC(C)=O)/C(C)=C/CC[C@@]1(C)O[C@H]21 (some centres undefined)	24.9 µM	20.1 µM	14.2 µM	22.1 µM	32.4 µM	21.5 µM	62.7 µM	19 µM	19.6 µM	10.2 µM				
CCOP(=O)(OCC)C(C(=O)OC)C(=O)C(=O)Nc1cccc(O)c1 (centres undefined)	> 100 µM	> 100 µM	> 100 µM	> 100 µM	> 100 µM	> 100 µM	> 100 µM	> 100 µM	> 100 µM	> 100 µM				
COc1ccccc1/C=C/C1=NN(c2cccc(S(=O)(=O)O)c2)C2(C1)C(Cl)C(=O)N2c1nc2ccccc2s1 (centres undefined)	> 100 µM	55.2 µM	> 100 µM	> 74.3 µM	> 95 µM	44 µM	> 96.3 µM	> 100 µM	> 100 µM	> 58.8 µM				
NC1CCC(N(CC(=O)O)CC(=O)O)C(N(CC(=O)O)CC(=O)O)C1 (centres undefined)	> 100 µM	> 100 µM	> 100 µM	> 100 µM	> 100 µM	> 100 µM	> 100 µM	> 100 µM		> 100 µM				
